Test systems include UO-31 renal; DU-145 prostate; M14 melanoma; MDA-MB-231 breast; HCT-15 colon; K-562 leukemia; A498 renal; RPMI-8226 leukemia.
Common to all, as to assay: NCI tumour cell line growth inhibition, 48 h

“And” between values parts separate entries of the source, which are not always exact repeats. Equal entries are not always repeated.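 In this assay, cells in 96-well plates receive the compound at five concentrations for 48 hours. Endpoints are linearly interpolated between the surrounding concentrations. Abbreviation: GI50, concentration required for 50% inhibition of growth. TGI is the concentration that stops growth completely.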

As for `O=C1NC(O)c2ccccc2O1` (stereo not given), the TGI in the test on UO-31 renal, in the test with DU-145 prostate, with M14 melanoma, in the test on MDA-MB-231 breast, in the test on HCT-15 colon and in the test with K-562 leukemia was greater than 100 µM in each case. The same compound gave a TGI in the test on A498 renal greater than 100 µM.

Take `COc1cc(OC)c(/C=C/C(=O)c2ccc(Nc3ncnc4ccccc34)cc2)c(OC)c1`: the GI50 is 0.687 µM with RPMI-8226 leukemia; 1.44 µM in the test with UO-31 renal; 1.45 µM in the test with DU-145 prostate; 0.575 µM with M14 melanoma; 1.43 µM in the test on MDA-MB-231 breast; 0.798 µM in the test on HCT-15 colon. Further, in the test with A498 renal, the GI50 is 0.282 µM. In addition, the TGI worked out at 3.99 µM with UO-31 renal; 3.42 µM with DU-145 prostate; 2.5 µM with M14 melanoma; 4.11 µM in the test with MDA-MB-231 breast; 24.8 µM in the test with HCT-15 colon; 2.13 µM in the test on A498 renal.

Consider `CC(=O)O[C@@]12CO[C@@H]1C[C@H](O)[C@@]1(C)C(=O)[C@H](O)C3=C(C)[C@@H](OC(=O)[C@H](O)[C@@H](NC(=O)OC(C)(C)C)c4ccccc4)C[C@@](O)([C@@H](OC(=O)c4ccccc4)C12)C3(C)C` (stereo not given in full), for which the GI50 was less than 0.005 µM in the test with RPMI-8226 leukemia; 0.372 µM and 0.192 µM in the test with UO-31 renal; less than 0.005 µM with DU-145 prostate; 0.00751 µM and 0.0717 µM with MDA-MB-231 breast; 0.0441 µM and 0.327 µM in the test on HCT-15 colon; less than 0.005 µM with K-562 leukemia. The TGI is 34 µM and 24.5 µM in the test on RPMI-8226 leukemia; 50 µM and 81.8 µM in the test with UO-31 renal; 28 µM and > 100 µM in the test with MDA-MB-231 breast; 50 µM and > 100 µM with HCT-15 colon; 50 µM with K-562 leukemia; 37 µM and 73.1 µM with A498 renal.

Regarding `O=c1cc(-c2ccccc2)oc2ccc(OC/C(=N/O)c3ccc(F)cc3)cc12`, the GI50 in the test with RPMI-8226 leukemia is 3 µM; with UO-31 renal it was 10.8 µM; with DU-145 prostate, 3.1 µM; with M14 melanoma, 4.48 µM; in the test with MDA-MB-231 breast, 6.16 µM; in the test on HCT-15 colon, 2.99 µM. Further, the GI50 with K-562 leukemia was 2.61 µM. Further, the TGI in the test on RPMI-8226 leukemia is 14.9 µM; in the test with UO-31 renal, greater than 50 µM; in the test on DU-145 prostate, 15.6 µM; in the test on M14 melanoma it was greater than 50 µM; with MDA-MB-231 breast, 27.2 µM; with HCT-15 colon, 14.5 µM. In addition, the TGI in the test with K-562 leukemia is greater than 50 µM.

For `COc1cc(OC)cc(-c2nc3sccn3c2/C=N/N=C(N)N)c1`, the GI50 with RPMI-8226 leukemia is 10.7 µM; in the test on UO-31 renal, 15.8 µM; in the test with M14 melanoma, 6.96 µM; in the test with MDA-MB-231 breast, 6.91 µM; in the test on HCT-15 colon it was 8.1 µM; in the test with K-562 leukemia it was 9.7 µM. Besides, the GI50 in the test with A498 renal is 9.86 µM. The TGI was 21.6 µM with RPMI-8226 leukemia; greater than 50 µM in the test on UO-31 renal; 13.4 µM in the test with M14 melanoma; 13.6 µM with MDA-MB-231 breast; 14.9 µM in the test with HCT-15 colon; 19 µM in the test on K-562 leukemia. For the same compound, in the test on A498 renal, the TGI was determined as 17.3 µM.

Regarding `CCC[CH2][Sn]([CH2]CCC)([CH2]CCC)[O]C(=O)C(OC(C)=O)c1ccccc1` (stereo not given), the GI50 is 0.0212 µM with RPMI-8226 leukemia; 0.157 µM in the test with UO-31 renal; 0.138 µM in the test on M14 melanoma; 0.144 µM in the test on HCT-15 colon; 0.109 µM with K-562 leukemia; 0.154 µM in the test with A498 renal. Also, the TGI in the test with RPMI-8226 leukemia came to 0.298 µM; in the test with UO-31 renal, 0.292 µM; with M14 melanoma, 0.267 µM; in the test with HCT-15 colon, 0.28 µM; in the test on K-562 leukemia, 0.349 µM; in the test on A498 renal it was 0.305 µM.

For `O=C1NC(=O)[C@@]2(CC[C@@H](O)C2)c2ccncc21`, the TGI in the test with UO-31 renal, in the test on DU-145 prostate, in the test on M14 melanoma, with MDA-MB-231 breast, with HCT-15 colon and with K-562 leukemia was greater than 100 µM throughout. The TGI in the test on A498 renal was greater than 100 µM.

With `O=C(Nc1ccc2ncnc(Nc3ccc(Oc4cccc(F)c4)c(Cl)c3)c2c1)c1ccc(CN2CCOCC2)cc1`, the GI50 in the test on UO-31 renal was 1.81 µM; in the test with DU-145 prostate it was 3.14 µM; in the test with M14 melanoma, 2.03 µM; in the test on MDA-MB-231 breast it was 2.68 µM; with HCT-15 colon, 2.49 µM; with K-562 leukemia, 2.47 µM. Also, the GI50 in the test on A498 renal was 3.28 µM. Moreover, the TGI in the test on UO-31 renal was determined as 8.59 µM; with DU-145 prostate, 15.8 µM; in the test on M14 melanoma, 4.68 µM; in the test on MDA-MB-231 breast, 9.03 µM; with HCT-15 colon, 8.85 µM; in the test on K-562 leukemia it was 11.7 µM. In the test with A498 renal, this compound had a TGI of 65.6 µM.

In the case of `Cc1ccc2[nH]c3c(c2c1)N=c1ccccc1=NO3`, the GI50 in the test with RPMI-8226 leukemia is greater than 100 µM; in the test with UO-31 renal, 42.2 µM; in the test on DU-145 prostate, 34.6 µM; with M14 melanoma, 48 µM; in the test with MDA-MB-231 breast, 35.9 µM; in the test on HCT-15 colon, greater than 100 µM. The GI50 in the test with K-562 leukemia was greater than 100 µM. Further, the TGI with RPMI-8226 leukemia, with UO-31 renal, in the test on DU-145 prostate, with M14 melanoma, with MDA-MB-231 breast and with HCT-15 colon was greater than 100 µM in each case. For the same compound, the TGI in the test with K-562 leukemia is greater than 100 µM.

Take `C=C(C)[C@@H]1C/C=C(/CO)CC[C@H]2O[C@]2(C)CC/C=C(\C)CC1`: the GI50 in the test with UO-31 renal was 13.6 µM; in the test with DU-145 prostate, 18.1 µM; in the test with M14 melanoma it was 15 µM; in the test on MDA-MB-231 breast it was 10.7 µM; in the test with HCT-15 colon, 23.6 µM; in the test with K-562 leukemia, 5.73 µM. For the same compound, the GI50 in the test with A498 renal was 10.4 µM. Moreover, the TGI in the test on UO-31 renal was determined as 29.9 µM; with DU-145 prostate it was 60.5 µM; in the test on M14 melanoma it was 29.9 µM; in the test with MDA-MB-231 breast, 29.7 µM; in the test with HCT-15 colon, 51.7 µM; in the test with K-562 leukemia it was 26.1 µM. Moreover, the TGI in the test with A498 renal turned out to be 24.3 µM.

For `COc1cc2c3c(n(CCCCNC(=O)OC(C)(C)C)c(=O)c2cc1OC)-c1cc2c(cc1C3=O)OCO2`, the GI50 in the test on UO-31 renal, with DU-145 prostate, with M14 melanoma, in the test with MDA-MB-231 breast, in the test with HCT-15 colon and with K-562 leukemia was greater than 100 µM throughout. Further, the GI50 in the test with A498 renal was greater than 100 µM. Further, the TGI in the test on UO-31 renal, in the test on DU-145 prostate, in the test with M14 melanoma, in the test with MDA-MB-231 breast, with HCT-15 colon and with K-562 leukemia was greater than 100 µM each time. The compound further registered a TGI in the test on A498 renal greater than 100 µM.
